Laboratory results: article PMC9025810, “Interaction of Antifungal Drugs with CYP3A- and OATP1B-Mediated Venetoclax Elimination” (Pharmaceutics, 2022)
Where two headings read alike, the source gives them in different places.

How the values were obtained:
[1] = plasma; cited from earlier work
[2] = cited from earlier work
[3] = cited from earlier work; remark: listed apart in the source
[4] = biological target: T1, OATP1B1 (Homo sapiens, UniProt Q9Y6L6); assay: Radioactive uptake and membrane/intracellular fractionation in cells overexpressing OATP1B1 or vector; format: cell-based; set-up: expressed in transfected cells
T1 sequence (Q9Y6L6 1-691): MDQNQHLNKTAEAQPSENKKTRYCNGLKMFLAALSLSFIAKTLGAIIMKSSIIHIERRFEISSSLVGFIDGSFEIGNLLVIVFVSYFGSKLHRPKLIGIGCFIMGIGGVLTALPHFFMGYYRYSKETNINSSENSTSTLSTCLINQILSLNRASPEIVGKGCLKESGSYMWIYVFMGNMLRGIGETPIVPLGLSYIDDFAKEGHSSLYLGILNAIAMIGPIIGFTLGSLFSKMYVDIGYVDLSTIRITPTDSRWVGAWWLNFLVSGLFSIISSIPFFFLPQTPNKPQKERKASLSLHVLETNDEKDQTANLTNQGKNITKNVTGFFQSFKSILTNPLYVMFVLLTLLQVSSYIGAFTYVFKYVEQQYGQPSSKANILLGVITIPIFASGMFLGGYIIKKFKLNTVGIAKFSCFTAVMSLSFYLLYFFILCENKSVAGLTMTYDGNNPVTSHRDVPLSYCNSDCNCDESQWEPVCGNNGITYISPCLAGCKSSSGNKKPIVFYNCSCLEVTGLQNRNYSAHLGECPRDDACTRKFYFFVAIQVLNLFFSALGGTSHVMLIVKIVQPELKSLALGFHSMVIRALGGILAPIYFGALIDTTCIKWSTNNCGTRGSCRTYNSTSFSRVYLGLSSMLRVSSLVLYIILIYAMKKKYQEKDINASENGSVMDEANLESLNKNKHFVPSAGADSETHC
Protocol: For experiments seeking to directly determine if venetoclax is an OATP1B1 substrate, cells overexpressing OATP1B1 or VC were seeded in six-well plates in phenol red-free DMEM containing 10% FBS and doxycycline (1 µg/mL) for 24 h. […] Cells were then immediately lysed with 1 mL of 1 N NaOH for 4 h on an orbital shaker at room temperature to measure total radioactivity. Alternatively, cells were trypsinized with 200 µL of TrypLE (Thermo Fisher Scientific, Waltham, MA, USA) for 3–5 min, rinsed with 800 µL of ice-cold washing buffer, and ProteoExtract Native Membrane Protein Extraction Kits (EMD Millipore, Burlington, MA, USA) were used to separate membrane and intracellular fractions. Dissociated cells were then transferred to 1.5-mL Eppendorf tubes. For measurement of total radioactivity, cells were neutralized with 500 µL of 2 M HCl after 4 h. For measurement of total radioactivity in the membrane or intracellular fraction, cells were isolated following the manufacturer’s protocol, as we have reported previously; this procedure is based on a differential extraction procedure under non-denaturing conditions.

[5] = biological target: T2, human CYP3A4 (Homo sapiens, UniProt P08684); assay: Venetoclax metabolism by human recombinant CYP3A4 supersomes; format: in vitro ADME; conditions: 10 µM venetoclax, 40 nM CYP3A4 supersomes, 2 h
T2 construct: purchased Corning 456207
T2 sequence (P08684 whole entry): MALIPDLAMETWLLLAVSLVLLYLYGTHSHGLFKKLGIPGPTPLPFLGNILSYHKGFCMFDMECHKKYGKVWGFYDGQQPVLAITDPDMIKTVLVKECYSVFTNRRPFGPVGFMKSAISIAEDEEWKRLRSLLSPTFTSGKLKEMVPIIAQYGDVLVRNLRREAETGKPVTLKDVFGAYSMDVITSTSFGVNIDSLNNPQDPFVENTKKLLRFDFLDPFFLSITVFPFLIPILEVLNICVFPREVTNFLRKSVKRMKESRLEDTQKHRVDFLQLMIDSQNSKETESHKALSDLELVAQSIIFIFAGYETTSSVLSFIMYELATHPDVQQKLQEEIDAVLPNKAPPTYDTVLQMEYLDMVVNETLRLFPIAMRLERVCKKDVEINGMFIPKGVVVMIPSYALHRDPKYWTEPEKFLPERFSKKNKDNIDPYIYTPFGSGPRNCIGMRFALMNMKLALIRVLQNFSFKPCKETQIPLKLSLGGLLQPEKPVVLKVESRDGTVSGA
Protocol: The ability of human CYP3A4 to metabolize venetoclax was assessed using human CYP3A4 supersomes using standard procedures. Reactions were performed in a volume of 100 µL. […] The mixture was preincubated for 5 min at 37 °C before initiating the reaction by the addition of the NADPH regenerating system and incubating at 37 °C with continuous shaking (400 rpm). At 0 h and 2 h, a 20 µL aliquot was mixed with 20 µL methanol to terminate the reaction. The mixture was then vortexed and stored at −80 °C until analysis. Venetoclax was quantified using a validated UHPLC-MS/MS analytical method.

[6] = biological target: T1, OATP1B1; assay: Competitive counterflow assay with 8-acetoxy-trisulfopyrene; format: cell-based; set-up: expressed in transfected cells
Protocol: Competitive counterflow assays were performed with 8-acetoxy-trisulfopyrene, an activatable fluorogenic probe for OATP1B1, as described previously. In brief, cells expressing a vector or OATP1B1 were seeded in 96-well opaque plates in phenol-red free DMEM media with 10% FBS and induced with doxycycline for 24 h. On the day of the experiment, the media was removed, and the cells were washed three times with warm PBS. The cells were then incubated for 20 min at 37 °C with 100 µL of 5 µM 8-acetoxypyrene-1,3,6-trisulfonate uptake buffer (ACE; 125 mM NaCl, 4.8 mM KCl, 1.2 mM CaCl2, 1.2 mM KH2PO4, […], 25 mM 2-N-morpholino), ethanesulfonic acid, and 5.6 mM glucose, with the pH adjusted to 5.5). […] The fluorescence was measured at excitation and emission wavelengths of 460 nm and 510 nm, respectively, after 20 min of incubation to control for the number of cells.
The plates were incubated for 20 min at 37 °C. In the final step, the supernatant was removed, and the cells were washed three times with 200 µL ice-cold PBS to stop the reaction. PBS was then removed and 200 µL of 0.1 N NaOH was added to each well to normalize the pH. The fluorescence was measured as described above after another 20 min incubation at room temperature. The levels of cell dye were reported as a percent of the measurement from cells containing ACE alone.

Uptake in the intracellular fraction with overexpression of OATP1B1 versus vector ([4]; 0.2 µM EβG or 1 µM venetoclax, 15 min): significant increases | Detectable compound associated with the membrane fraction ([4]; after correction for the intracellular fraction): > 96% | Venetoclax remaining unbound (membrane-binding experiment) ([4]; in vitro, cells): < 3% | Radioactivity in the membrane fraction relative to the probe substrate EβG ([4]; membrane fraction, 1 µM venetoclax vs 0.2 µM EβG): > 500 fold | Detected total radioactivity relative to the probe substrate EβG ([4]; whole cell lysate, cells expressing OATP1B1 or vector, 15 min): > 10 fold | Amount of venetoclax in the reaction in the presence of ketoconazole ([5]; 10 µM ketoconazole): nearly unchanged | Reduction of the amount of venetoclax in the reaction ([5]; vehicle (DMSO)): 40%
Compound: CC1(C)CCC(CN2CCN(c3ccc(C(=O)NS(=O)(=O)c4ccc(NCC5CCOCC5)c([N+](=O)[O-])c4)c(Oc4cnc5[nH]ccc5c4)c3)CC2)=C(c2ccc(Cl)cc2)C1 [Venetoclax]
Protein-bound in plasma [1]: > 99% | Reduction of clearance in vivo ([2]; mice with a deficiency of all OATP1A and OATP1B type transporters): 60% | DDI between venetoclax and ketoconazole (increase in venetoclax exposure) ([2]; mice): ~ 3 fold | Variation in apparent oral clearance ([3]; at approved doses, patients): ~15 fold | DDI between venetoclax and ketoconazole (increase in venetoclax exposure) ([3]; humans): ~ 6 fold | Increase in systemic exposure to venetoclax with a single dose of rifampin ([3]; humans): 2 fold | Effect on fluorescence (cell dye level) in competitive counterflow ([6]; 5 µM ACE, venetoclax 200 µM, cyclosporin A 10 µM, paraformaldehyde 0.5%, 20 min): significantly decreased fluorescence | Actual unbound concentration of venetoclax in counterflow experiments ([6]; nominal concentration 200 µM): < 10 µM
